Results on 1 substance are retold here after patent US7981997B2, “Growth factor which acts through ErbB-4 RTK” (Yeda Research And Development Co., priority 2000, dated 2011).

The subject of assay [1] is D1 cells (32D expressing ErbB-1). Nature of the assay: 32D cell proliferation, 24-hour dose-response MTT assay. In kind it is cell-based. Particulars: 24-hour dose-response, without IL-3. As for the experimental part:
The indicated derivative lines of 32D cells were tested for cell proliferation using the [3-(4,5-dimethylthiazol-2-yl)-2,5-diphenyl]tetrazolium bromide (MTT) assay. […] The MT assay was performed 24 hours later. Results are presented as percent induction over the control untreated cells, and are the mean±S.D. of 4 determinations. Each experiment was repeated at least twice with similar findings.
(§1) The establishment of a series of interleukin 3 (IL-3)-dependent 32D myeloid cells expressing all combinations of ErbB proteins has been described (Alimandi et al., 1997; Pinkas-Kramarski et al., 1996; Shelly et al., 1998). Cells were maintained in RPMI medium with 10% fetal bovine serum (FBS) and dilute IL3-containing conditioned medium. Prior to proliferation assays, cells were washed three times in RPMI/FBS and plated (5×10^5 cells/ml; 0.1 ml/well) into 96-well flat-bottomed plates with the indicated liconcentrations or with IL-3 (1:1000 dilution of conditioned medium). Cell survival was determined 24 hours later, or after the indicated time intervals, by MTT assay, as previously described (Mosman, 1983). MTT (0.05 mg/ml) was incubated with the analyzed cells for 2 hours at 37 C. Living cells can transform the tetrazolium ring into dark blue formazan crystals, that can be quantified by reading the optical density at 540-630 nm after lysis of the cells with acidic isopropanol. […]
(In general: Formazan colour is commonly taken as a measure of viable cells.)

Assay [2] deals with D12 cells (32D co-expressing ErbB-1 and ErbB-2). In words: Long-term cell survival assay in the absence of IL-3 (MTT). In kind it is cell-based. The settings on record: ligand 100 ng/ml, FIG. 3B. Here is the method:
FIG. 3b show survival effect of NRG-4 on ErbB-expressing derivatives of 32D cells. The indicated derivatives of 32D cells were incubated for various time intervals in the absence of IL-3. […] For control, cells were incubated with medium conditioned by IL-3-producing cells (open triangles), or with no factor (open circles). The extent of cell proliferation was determined daily by using the calorimetric MTT assay. The data presented are the mean±S.D. of 4 determinations. Note that co-expression of ErbB-1 and ErbB-2 (D12 cells) enabled cell survival in the absence of IL-3. The experiment was repeated twice with similar results.
as §1, with “Prior to proliferation assays, cells were washed three times in RPMI/FBS and plated (5×10^5 cells/ml; 0.1 ml/well) into 96-well flat-bottomed plates with the indicated liconcentrations or with IL-3 (1:1000 dilution of conditioned medium).” left out

Turning to “EGF: EGF (human, recombinant) purchased from Boehringer Mannheim (NSDSECPLSHDGYCLHDGVCMYIEALDKYACNCVVGYIGERCQYRDLKWWELR) [reference compound]”, the “mitogenic response of D1 cells” value in assay [1] is “retained”. Besides, the “response of D12 cells (high basal proliferation activity)” value in assay [2] is “still responded”.
